# Experimental data taken from patent US9168259B2 (GRÜNENTHAL GMBH, priority 2010, dated 2015).
# Where two headings read alike, the source gives them in different places.
# Target: T1, KCNQ2/3 channels (Homo sapiens, UniProt O43525+O43526)
# T1 construct: expressed in transfected cells
# Experiment: Fluorescence assay using a voltage sensitive dye (fluorimetry)
# Type: cell-based
# Details: for EC50: IC50 where % efficacy is negative, read-out: Fluorimetry EC50/IC50
# Excerpt: Method I. Fluorescence Assay Using a Voltage Sensitive Dye (Fluorimetry)
# These voltage-sensitive dyes are fluorescent dyes and, therefore, are forming the link between cell potential influenced by KCNQ modulation and fluorescence intensity. A KCNQ agonist leads to an opening of the channel, potassium and dye efflux, a following hyperpolarization and a reduction of the inner fluorescence intensity in a kinetic protocol. If applying an ion jump by KCl depolarization, KCNQ agonists increase the ΔF/F value. An antagonist performs vice versa, respectively.
# Therefore, ‘fluorimetry EC50’ is a measure for the compound potency. The compound efficacy is mirrored by ‘fluorimetry % efficacy’ (‘% Efficacy’) and refers to the maximum response achievable by the test compound, i.e. the plateau effect. This drug's plateau effect is related to the plateau effect, which can be achieved by applying a saturated concentration of a reference compound, e.g. Retigabine (50 μM), in independent wells of the same experimental plate or series.
# […] CHO-K1 cells expressing KCNQ2/3 channels are cultivated adherently at 37° C., 5% CO2 and 95% humidity in cell culture bottles (e.g. 80 cm^2 TC flasks, Nunc) with DMEM-high glucose (Sigma Aldrich, D7777) including 10% FCS (PAN Biotech, e.g. 3302-P270521) or alternatively MEM Alpha Medium (1×, liquid, Invitrogen, #22571), 10% fetal calf serum (FCS) (Invitrogen, #10270-106, heat-inactivated) and the necessary selection antibiotics.
# The cell number is determined using a CASY™ cell counter (TCC, Schärfe System). Depending on the optimal density for each individual cell line, 20,000-30,000 cells/well/100 μl are seeded onto 96-well Corning™ CellBIND™ assay plates (Flat Clear Bottom Black Polystyrene Microplates, #3340). Freshly seeded cells are then left to settle for one hour at room temperature, followed by incubation for 24 hours at 37° C., 5% CO2 and 95% humidity.
# The voltage-sensitive fluorescent dye from the Membrane Potential Assay Kit (Red™ Bulk format part R8123 for FLIPR, MDS Analytical Technologies™) is prepared by dissolving the contents of one vessel Membrane Potential Assay Kit Red Component A in 200 ml of extracellular buffer (ES buffer, 120 mM NaCl, 1 mM KCl, 10 mM HEPES, 2 mM CaCl2, 2 mM MgCl2, 10 mM glucose; pH 7.4). After removal of the nutrient medium, the cells are washed once with 200 μl of ES buffer, then loaded for 45 min at room temperature in 100 μl of dye solution in the dark.
# Fluorescence measurements are carried out in a BMG Labtech FLUOstar™, BMG Labtech NOVOstar™ or BMG Labtech POLARstar™ instrument (525 nm excitation, 560 nm emission, Bottom Read mode). After incubation with the dye, 50 μl of the test substances in the desired concentrations, or 50 μl of ES buffer for control purposes, are applied to the wells of the assay plate and incubated for 30 min at room temperature while being shielded from light. The fluorescence intensity of the dye is then measured for 5 min and the fluorescence value F1 of each well is thus determined at a given, constant time. 15 μl of a KCl solution are then added to each well (final concentration of potassium ions 92 mM). The change in fluorescence intensity is subsequently monitored until all the relevant values have been obtained (mainly 5-30 min). At a given time post KCl application, a fluorescence value F2 is determined, in this case at the time of the fluorescence peak.
# For calculation, the fluorescence intensity F2 is corrected for the fluorescence intensity F1, and the activity (ΔF/F) of the target compound on the potassium channel is determined as follows:
# In order to determine whether a substance has agonistic activity,
# [formula] can be related to
# [formula] of control wells.
# [formula] is determined by adding to the well only the buffer solution instead of the test substance, determining the value F1K of the fluorescence intensity, adding the potassium ions as described above, and measuring a value F2K of the fluorescence intensity.
# [1] = CHO-K1, plateau effect relative to saturated retigabine (50 μM) = 100%, CHO-K1 cells expressing KCNQ2/3, negative values = antagonistic, read-out: Fluorimetry % efficacy (retigabine = 100%)
# [2] = CHO-K1 cells expressing KCNQ2/3
# T1 sequence (O43526 whole entry): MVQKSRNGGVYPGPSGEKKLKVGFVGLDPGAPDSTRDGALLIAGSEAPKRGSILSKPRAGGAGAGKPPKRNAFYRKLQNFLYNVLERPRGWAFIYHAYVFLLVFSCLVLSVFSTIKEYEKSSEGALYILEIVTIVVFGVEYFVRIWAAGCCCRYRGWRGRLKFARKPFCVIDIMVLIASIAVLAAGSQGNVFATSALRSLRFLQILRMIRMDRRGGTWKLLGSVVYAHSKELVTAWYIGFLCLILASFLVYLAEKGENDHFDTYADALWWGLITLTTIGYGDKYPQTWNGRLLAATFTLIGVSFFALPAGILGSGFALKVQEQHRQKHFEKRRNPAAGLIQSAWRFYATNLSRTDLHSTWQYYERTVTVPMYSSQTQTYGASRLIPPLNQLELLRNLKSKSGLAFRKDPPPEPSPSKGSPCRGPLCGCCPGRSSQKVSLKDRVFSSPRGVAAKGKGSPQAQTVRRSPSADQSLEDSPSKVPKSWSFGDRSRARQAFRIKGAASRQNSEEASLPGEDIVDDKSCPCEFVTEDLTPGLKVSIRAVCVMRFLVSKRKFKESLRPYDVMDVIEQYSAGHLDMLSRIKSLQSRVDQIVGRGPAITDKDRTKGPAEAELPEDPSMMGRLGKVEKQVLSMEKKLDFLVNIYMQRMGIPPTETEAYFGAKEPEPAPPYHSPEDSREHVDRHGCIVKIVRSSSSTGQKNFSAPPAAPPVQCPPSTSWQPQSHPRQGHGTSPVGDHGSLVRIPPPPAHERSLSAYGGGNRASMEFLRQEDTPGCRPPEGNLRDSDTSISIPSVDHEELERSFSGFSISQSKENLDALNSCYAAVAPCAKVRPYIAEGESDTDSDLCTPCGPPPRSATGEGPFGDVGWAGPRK
# T1 sequence (O43525 whole entry): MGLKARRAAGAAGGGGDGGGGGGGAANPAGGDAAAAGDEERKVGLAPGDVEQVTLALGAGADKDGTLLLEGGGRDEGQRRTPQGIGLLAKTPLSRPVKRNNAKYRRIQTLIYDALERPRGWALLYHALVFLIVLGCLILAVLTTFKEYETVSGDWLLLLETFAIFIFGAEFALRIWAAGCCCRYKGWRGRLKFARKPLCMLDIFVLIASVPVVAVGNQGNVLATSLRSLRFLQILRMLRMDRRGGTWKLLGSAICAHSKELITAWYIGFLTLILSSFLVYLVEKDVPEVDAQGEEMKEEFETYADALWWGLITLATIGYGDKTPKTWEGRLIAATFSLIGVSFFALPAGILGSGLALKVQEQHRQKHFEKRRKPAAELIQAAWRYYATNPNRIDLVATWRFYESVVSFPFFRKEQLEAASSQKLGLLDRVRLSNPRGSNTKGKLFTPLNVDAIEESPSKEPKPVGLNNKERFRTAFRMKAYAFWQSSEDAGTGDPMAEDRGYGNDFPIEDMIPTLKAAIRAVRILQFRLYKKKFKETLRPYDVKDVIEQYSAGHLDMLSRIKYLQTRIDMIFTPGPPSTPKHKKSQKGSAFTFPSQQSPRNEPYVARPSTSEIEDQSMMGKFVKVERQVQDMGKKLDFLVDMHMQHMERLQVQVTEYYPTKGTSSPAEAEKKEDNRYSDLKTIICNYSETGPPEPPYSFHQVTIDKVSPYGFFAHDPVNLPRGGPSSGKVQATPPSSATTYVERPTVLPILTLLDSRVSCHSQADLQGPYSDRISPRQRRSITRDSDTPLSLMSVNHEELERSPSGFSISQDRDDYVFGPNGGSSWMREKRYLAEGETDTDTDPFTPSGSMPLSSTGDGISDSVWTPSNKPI
Emax [1] [%],EC50 [2] [nM],SMILES,"Emax (CHO-K1, read-out: Fluorimetry % efficacy (retigabine = 100%)) [%]"
145,217,"CCSc1nc(N2CCOC(C)C2)cc(C)c1C(=O)NCc1cccc(F)c1 (racemic) [Example 48, 2-Ethylsulfanyl-N-[(3-fluorophenyl)-methyl]-4-methyl-6-(2-methyl-morpholin-4-yl)-pyridine-3-carboxylic acid amide]",
,529,"Cc1cc(N2CCOCC2)nc(C2CC2)c1C(=O)NCCC(O)C(C)(C)C (racemic) [Example X1, 2-Cyclopropyl-N-(3-hydroxy-4,4-dimethyl-pentyl)-4-methyl-6-morpholin-4-yl-pyridine-3-carboxylic acid amide]",
,156,"Cc1cc(N2CCOCC2)nc(C(C)C)c1C(=O)NCCC(O)C(C)(C)C (racemic) [Example X5, N-(3-Hydroxy-4,4-dimethyl-pentyl)-2-isopropyl-4-methyl-6-morpholin-4-yl-pyridine-3-carboxylic acid amide]",
,1990,"Cc1cc(N2CCOCC2)nc(C(C)C)c1C(=O)NCCC(O)C(F)(F)F (racemic) [Example X6, 2-Isopropyl-4-methyl-6-morpholin-4-yl-N-(4,4,4-trifluoro-3-hydroxy-butyl)-pyridine-3-carboxylic acid amide]",
132,233,"COc1nc(N2CCOCC2)cc(C)c1C(=O)NCc1cc(F)cc(F)c1 [Example 3, N-[(3,5-Difluoro-phenyl)-methyl]-2-methoxy-4-methyl-6-morpholin-4-yl-pyridine-3-carboxylic acid amide]",
111,269,"CCSc1nc(N(C)CC2CCCCO2)cc(C)c1C(=O)NCc1cccc(F)c1 (centres unmarked) [Example 5, 2-Ethylsulfanyl-N-[(3-fluorophenyl)-methyl]-4-methyl-6-[methyl-(tetrahydro-pyran-2-yl-methyl)-amino]-pyridine-3-carboxylic acid amide]",
140,3870,"CCSc1nc(N2CC(OC)C2)cc(C)c1C(=O)NCc1cccc(F)c1 [Example 6, 2-Ethylsulfanyl-N-[(3-fluorophenyl)-methyl]-6-(3-methoxy-azetidin-1-yl)-4-methyl-pyridine-3-carboxylic acid amide]",
44,,"CCSc1nc(N2CC(O)C2)cc(C)c1C(=O)NCc1cccc(F)c1 [Example 7, 2-Ethylsulfanyl-N-[(3-fluorophenyl)-methyl]-6-(3-hydroxy-azetidin-1-yl)-4-methyl-pyridine-3-carboxylic acid amide]",
174,740,"C/C=C/c1nc(N2CCOCC2)cc(C)c1C(=O)NCc1cccc(F)c1 [Example 9, N-[(3-Fluorophenyl)-methyl]-4-methyl-6-morpholin-4-yl-2-[(E)-prop-1-enyl]pyridine-3-carboxylic acid amide]",
41,175,"CCSc1nc(N2CCOCC2)cc(C(F)(F)F)c1C(=O)NCc1cccc(F)c1 [Example 11, 2-Ethylsulfanyl-N-[(3-fluorophenyl)-methyl]-6-morpholin-4-yl-4-(trifluoromethyl)-pyridine-3-carboxylic acid amide]",
210,2010,"Cc1cc(N2CCOCC2)nc(N2CCOCC2)c1C(=O)NCc1cccc(F)c1 [Example 12, N-[(3-Fluorophenyl)-methyl]-4-methyl-2,6-dimorpholin-4-yl-pyridine-3-carboxylic acid amide]",
16,,CCSc1nc(N2CCC(C(=O)O)CC2)cc(C)c1C(=O)NCc1cccc(F)c1 [Example 14],
93,7060,"CCSc1nc(N2CCC(O)CC2)cc(C)c1C(=O)NCc1cccc(F)c1 [Example 15, 2-Ethylsulfanyl-N-[(3-fluorophenyl)-methyl]-6-(4-hydroxy-piperidin-1-yl)-4-methyl-pyridine-3-carboxylic acid amide]",
149,2520,"CCSc1nc(N2CCC(=O)CC2)cc(C)c1C(=O)NCc1cccc(F)c1 [Example 16, 2-Ethylsulfanyl-N-[(3-fluorophenyl)-methyl]-4-methyl-6-(4-oxo-piperidin-1-yl)-pyridine-3-carboxylic acid amide]",
21,,"CCSc1nc(N2CCOCC2)cc(C)c1C(=O)NCc1ccc(F)cc1OC [Example 17, 2-Ethylsulfanyl-N-[(4-fluoro-2-methoxy-phenyl)methyl]-4-methyl-6-morpholin-4-yl-pyridine-3-carboxylic acid amide]",
224,98,"CCSc1nc(N2CCOCC2)cc(C)c1C(=O)NCc1ccc(F)cc1O [Example 18, 2-Ethylsulfanyl-N-[(4-fluoro-2-hydroxy-phenyl)methyl]-4-methyl-6-morpholin-4-yl-pyridine-3-carboxylic acid amide]",
140,782,"CCNc1nc(N2CCOCC2)cc(C)c1C(=O)NCc1cccc(F)c1 [Example 20, 2-Ethylamino-N-[(3-fluorophenyl)-methyl]-4-methyl-6-morpholin-4-yl-pyridine-3-carboxylic acid amide]",
146,1220,"COCCOc1nc(N2CCOCC2)cc(C)c1C(=O)NCc1cccc(F)c1 [Example 21, N-[(3-Fluorophenyl)-methyl]-2-(2-methoxy-ethoxy)-4-methyl-6-morpholin-4-yl-pyridine-3-carboxylic acid amide]",
166,790,"CCc1nc(N2CCOCC2)cc(C)c1C(=O)NCc1cccc(F)c1 [Example 22, 2-Ethyl-N-[(3-fluorophenyl)-methyl]-4-methyl-6-morpholin-4-yl-pyridine-3-carboxylic acid amide]",
182,113,"Cc1cc(N2CCOCC2)nc(C(C)C)c1C(=O)NCc1cccc(F)c1 [Example 23, N-[(3-Fluorophenyl)-methyl]-2-isopropyl-4-methyl-6-morpholin-4-yl-pyridine-3-carboxylic acid amide]",
210,308,"Cc1cc(N2CCOCC2)nc(N2CCCC2)c1C(=O)NCc1cccc(F)c1 [Example 24, N-[(3-Fluorophenyl)-methyl]-4-methyl-6-morpholin-4-yl-2-pyrrolidin-1-yl-pyridine-3-carboxylic acid amide]",
162,211,"CCSc1nc(N2CCCC2)cc(C)c1C(=O)NCc1cccc(F)c1 [Example 25, 2-Ethylsulfanyl-N-[(3-fluorophenyl)-methyl]-4-methyl-6-pyrrolidin-1-yl-pyridine-3-carboxylic acid amide]",
155,132,"CCSc1nc(N2CCc3ccccc3C2)cc(C)c1C(=O)NCc1cccc(F)c1 [Example 26, 2-Ethylsulfanyl-N-[(3-fluorophenyl)-methyl]-4-methyl-6-(1,2,3,4-tetrahydro-isoquinolin-2-yl)-pyridine-3-carboxylic acid amide]",
132,151,"CCSc1nc(N2CCc3cc(C(F)(F)F)ccc3C2)cc(C)c1C(=O)NCc1cccc(F)c1 [Example 27, 2-Ethylsulfanyl-N-[(3-fluorophenyl)-methyl]-4-methyl-6-[6-(trifluoromethyl)-1,2,3,4-tetrahydro-isoquinolin-2-yl]pyridine-3-carboxylic acid amide]",

SMILES,Emax [1] [%],EC50 [2] [nM],"Emax (CHO-K1, read-out: Fluorimetry % efficacy (retigabine = 100%)) [%]"
CCSc1nc(N2CCC(C(=O)OC)CC2)cc(C)c1C(=O)NCc1cccc(F)c1 [Example 13],,1090,145
